Reference: patent publication US20220054658A1, “CONJUGATES” (Transfection Holdings Limited, priority 2018, published 2022)

Legend:
[1] = test system: gastrointestinal system (crop, midgut and rectum) of adult honey bees; assay: Honey bee gut uptake test; set-up: species or system Apis mellifera; details: 100 μM, 33° C., 45 min
Method: Honey bee (A. mellifera) hives were obtained and allowed to feed ab libitum spring to autumn. During the winter period, pollen mixed with 50% (v/v) sucrose was added to the honey bee hives in order to provide sufficient food. Honey bees were dissected and gastrointestinal system was removed including the crop, midgut and rectum, and added immediately to 500 μL of the delivery vehicle to be tested sample diluted with PBS at 100 μM final concentration or DMSO (0.1%) control. The mixture was incubated for 45 min at 33° C.
The gastrointestinal system (crop, midgut and rectum) of adult honey bees was extracted, and incubated with derivatives 1, 2, 8 and 11 at 100 μM and 33° C. for 45 min.

L. passim strain PRA-403 = assay: Lotmaria passim parasite uptake test; format: cell-based; details: 1 μM, room temperature, 45 min, microplate reader
C. elegans [2] = assay: Conjugate uptake in C. elegans (dye and praziquantel conjugates, fluorescence microscopy); format: in vivo, Caenorhabditis elegans
In short: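 Worms in M9 buffer were exposed to 50 μM compound from a DMSO stock at room temperature in the dark for 3 h. Other samples were incubated overnight at 20 °C with OP50, and praziquantel conjugates were also read at 24 and 72 h. Worms were washed, immobilised with sodium azide on agarose and imaged by fluorescence microscopy.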

C. elegans [3] = assay: Protein uptake in C. elegans (phiLOV protein conjugates); format: in vivo, Caenorhabditis elegans; details: positive control
Method: The effective PhiLOV protein conjugate in M9 buffer was taken from the chemical ligation and purification experiments. The amount of M9 buffer added was determined by the final concentration required. Nematodes (30-40 per protein sample to be analysed) were picked and added to the protein solution, and the resulting suspension was treated with OP50 E. coli solution for nematode sustenance. The nematode suspension was incubated at 20° C. in the dark, and covered with aluminium foil.
Aliquots (10 to 25 μL) were taken at 24, 48 and 72 h. and transferred into a new Eppendorf tube at each time point and diluted with M9 buffer (200 μL). The new suspension was placed in ice (for 1-2 min) and then centrifuged at 10.000 rpm for 1 min. The supernatant was removed and the concentrated nematodes were washed again (2×200 μL). In the final wash, a residual volume (approx. 30 μL) was left with the nematodes.
For the microscopy studies, a 1.5% agarose solution in water was warmed up for 1-1.5 min in a standard household microwave (Power 4). Two drops of the agarose solution were placed on a glass slide and covered with another glass slide. After 1 min, the two slides were taken apart from each other carefully. On the slide where the agarose remained, 15-20 μL of the final C. elegans solution was placed. To this was added a 20 mM sodium azide solution (5 μL) to inhibit nematode mobility.
Vaseline was placed around the agarose area before replacing the top cover slip. The cover slips were not pressed together. The nematodes were then analysed using a Zeiss Axiskop 2 Plus microscope using a Hamamatsu Orca-ER (CA 742-95) camera. The images were resolved using OpenLab on a Mac operating system.
Feeding was repeated after 48 h. with addition of 2 μL of OP50 bacteria for feeding purposes, and the worm incubation was continued in the dark at […].
Using the approach described above, 11 protein conjugates were tested for their ability to deliver the phiLOV protein into nematodes. […] The location and efficiency of the delivery can be modulated by small structural modifications to the delivery vehicle, as shown by compounds P1-P11 (including negative control, positive control using compound 1 and untagged phiLOV protein control).

B. bovis Texas strain = assay: Short-term uptake test in B. bovis infected RBCs (confocal microscopy); details: 25 μM, 37° C., 45 min, ~5% PPE
Method: The parasite culture was centrifuged and washed once with GIT medium. RBC's were pellet down, and 20 μl infected RBC mixture (10 μl packed infected RBC+10 μl GIT) was prepared. Then, 180 μl GIT medium with compound the compound to be evaluated (final concentration 25 μM for BODIPY derivatives and 100 μM for phiLOV derivatives) or DMSO (0.1%)/PBS control was added. The samples were incubated for 45 min at 37° C. (Samples were stained 1 μg/mL diluted Hoechst 33342 in GIT medium). After incubation, the samples were centrifuged and the pellet was washed with GIT medium (3×). A final solution of 50% haematocrit infected RBC mixture was transferred to slides to be observed by confocal laser microscopy (Nikon A1).
Uptake experiments were performed by incubating the parasite (˜5% Parasitized Erythrocytes (PPE)) with each derivative at 25 μM and 37° C. for 45 min. After incubation, the fluorescence intensities were calculated from confocal microscope images.
The phiLOV double mutant (R475G, K476C) was used to generate derivatives P11, P1, P8, and P3 which were tested for uptake in B. bovis Texas strain using phiLOV as a control. The derivatives and the control were incubated at 100 μM and 37° C. for 45 min. After incubation, the samples were analysed under confocal microscopy using Hoeschst 33342 (Thermofisher) as co-stain.

Structure (SMILES): CC1=CC(C)=[N+]2C1=Cc1ccc(CCCn3cc(CCNC(=O)/C=C/NC(=O)[C@@H]4OC(C)(C)OCC4(C)C)nn3)n1[B-]2(F)F [Compound 1, (R,E)-N-((((3-[4,4-Difluoro-5,7-dimethyl-4-bora-3a,4a-diaza-s-indacene-3-yl]propyl)-1H-1,2,3-triazol-4-yl)ethylamino)-3-oxoprop-1-enyl)-2,2,5,5-tetramethyl-1,3-dioxane-4-carboxamide]
- fluorescence in honey bee gut (crop, midgut, rectum) [1]: high fluorescence in the midgut and rectum, but not the crop
- fluorescence relative to derivative 2 (L. passim strain PRA-403): approximately % of the fluorescence of derivative 2
- uptake compared to other compounds (C. elegans [2]; 50 μM, 3 h incubation): largest uptake observed compared to compounds 2 to 8
- uptake: location of fluorescence in C. elegans (C. elegans [2]; 50 μM, 3 h incubation): observed in the pharynx, gut lumen and gut cells of both adults and larval stages
- uptake: location of fluorescence in C. elegans (C. elegans [2]; 50 μM, 20 h / overnight incubation): strong fluorescence was localised in the pharynx, gut lumen and gut cells of both adults and larvae
- distribution in C. elegans (C. elegans [2]; FIG. 2(h), fluorescence microscopy): distributed throughout the nematode
- location of fluorescence in C. elegans (C. elegans [3]; 24 h incubation): fluorescence could be observed in the pharynx, gut lumen and gut cells of both adults and larval stages of C. elegans
- location of fluorescence in C. elegans (C. elegans [3]; 48 h incubation): fluorescence was still localised in the pharynx, gut lumen and gut cells of both adults and larvae
- location of fluorescence in C. elegans (C. elegans [3]; 72 h incubation): fluorescence was still localised in the pharynx, gut lumen and gut cells of both adults and larvae
- state of adult nematodes (C. elegans [3]; 72 h point (same seen with M9 buffer negative control)): the adult nematodes were dead
- uptake in RBCs infected with B. bovis (fluorescence intensity from confocal images) (B. bovis Texas strain): highest uptake
